Assay results reported in ChEMBL document CHEMBL3507680, “University of Dundee, Gates Library screen for HepG2 cell viability”.

Experiment: Human HepG2 cell viability assay in 384 well format
Format: toxicity, cell-based
Set-up: dose 125 nL, time 70.5 hour; cytotoxicity at 70.5 h: concentration not given beside the values
Conditions: HepG2 cells, read-out: Inhibition

Row | Compound | cytotoxicity at 70.5 h
1 | Cc1nc(C)n(CC2CCCN2Cc2cnc(C)s2)n1 (stereo not given) | -8.97%
2 | Cc1nc(CN2CCCC2Cn2cncn2)nc2ccccc12 (stereo not given) | -12.1%
3 | CC(C)c1nc(CN2CCOCC2)cs1 | 7.98%
4 | CN(Cc1ccccc1)C(=O)CS(=O)(=O)Cc1ccc(Cl)c(Cl)c1 | -4.65%
5 | CCOc1ccc(CC(CNC(=O)c2sccc2C)C(N)=O)cc1 (stereo not given) | -1.61%
6 | CCOc1ccc(CC(CNC(=O)c2ccc(C)o2)C(N)=O)cc1 (stereo not given) | -10.7%
7 | O=C(c1ccc2[nH]nnc2c1)N1CCCC(n2cccn2)C1 (stereo not given) | -5.26%
8 | Cc1nnc2n1CCN(CC(=O)Nc1cc(C(C)C)no1)C2 | -8.51%
9 | COc1ccccc1CC1CCCN(CCC(N)=O)C1 (stereo not given) | 5.7%
10 | CCc1nnc2n1CCN(CCC(=O)Nc1cc(C)on1)C2 | -5.92%
11 | CC(C)c1nccn1C1CCCN(C(=O)c2ccsc2)C1 (stereo not given) | -2.65%
12 | CC(C)c1nnc2n1CCN(C(=O)c1ccc(Cn3cccc3)cc1)C2 | -7.11%
13 | Cc1cc(NC(=O)CCN2CCn3c(C)nnc3C2)no1 | -8.82%
14 | Cc1cc(C)n(C2CCCN(C(=O)c3ccn(C)c(=O)c3)C2)n1 (stereo not given) | -9.18%
15 | CCc1nc(C2CCCN2Cc2noc(Cc3ccccc3)n2)no1 (stereo not given) | -7.3%
16 | CN(Cc1nc2ccccc2o1)CC1CCCN1c1cccnn1 (stereo not given) | 7.03%
17 | Cc1noc(C2CCCN(C(=O)c3cc(Cl)ccc3F)C2)n1 (stereo not given) | -7.27%
18 | CCc1nc(C2CCCN2Cc2nnc(CC)o2)no1 (stereo not given) | -9.92%
19 | CCc1nc(CN2CCOC(CN(CC)c3cccnn3)C2)cs1 (stereo not given) | -12.8%
20 | CN(Cc1ccsc1)C(=O)CN1CCCCC1Cn1cccn1 (stereo not given) | -10%

Row | Compound | cytotoxicity at 70.5 h
21 | CN(Cc1nc2ccccc2n1C)CC1CCCN1c1cccnn1 (stereo not given) | -11.1%
22 | Cc1nc(CN(C)CC2CCCN2c2cccnn2)nc2ccccc12 (stereo not given) | -5.19%
23 | Cc1noc(CN2CCN(C(=O)c3ccccn3)CC2)n1 | -8.75%
24 | O=c1n(CCSCc2ccccc2Br)nc2ccccn12 | 4.82%
25 | CSC(C)C(=O)NCc1ccc(-n2cncn2)nc1 (stereo not given) | -10.2%
26 | CCc1nnsc1C(=O)N1CCCN(Cc2ccccc2)CC1 | -8.56%
27 | CC(=O)Nc1nc(C(=O)NC(C)c2ccncc2)cs1 (stereo not given) | 5.86%
28 | CC(C)COC(C)C(=O)NCc1ccc(-n2cncn2)nc1 (stereo not given) | 3.66%
29 | CC(C(=O)NCc1ccc(-n2cncn2)nc1)S(C)(=O)=O (stereo not given) | 0.438%
30 | CNC(=O)NC(=O)CN(CC(C)O)c1ccccc1 (stereo not given) | -3.36%
31 | Cc1cc(CN(C)C(=O)NC2CCC(O)CC2)no1 (stereo not given) | -7.4%
32 | O=C(Cc1ccc2c(c1)CCC2)N1CCCC(n2cccn2)C1 (stereo not given) | -6.54%
33 | N#Cc1ccc(CC(=O)N2CCCC(n3cccn3)C2)cc1 (stereo not given) | -5.65%
34 | CCOc1ccccc1CSCCn1nc2ccccn2c1=O | -10.1%
35 | Cc1cc(CN(C)C(=O)NC2CCCC2)no1 | -7.06%
36 | COc1cccc(-c2nc(CNC(C)Cn3cccn3)cs2)c1 (stereo not given) | 12.8%
37 | CCc1nc(CN2CCCN(C(=O)C3CCOCC3)CC2)cs1 | 18.1%
38 | CCc1nc(CN2CCCN(C(=O)C3CCOC3)CC2)cs1 (stereo not given) | 7.45%
39 | COc1ccc(C(=O)N(C)Cc2cc(C)on2)c(F)c1 | -10.6%
40 | COc1cccc(-c2nc(CNCCCn3cccn3)cs2)c1 | -3.21%

Row | Compound | cytotoxicity at 70.5 h
41 | COc1ccc(-c2nc(CNCCn3cccn3)cs2)cc1 | -5.1%
42 | Cc1nc(CN2CCCN(C(=O)c3c(C)noc3C)CC2)cs1 | -5.02%
43 | Cc1cc(CN(C)C(=O)c2ccc(F)cc2F)no1 | -7.99%
44 | CCc1nc(CN2CCCN(C(=O)c3cncnc3C)CC2)cs1 | -7.12%
45 | Cc1cc(NC(=O)C(C)N2CCN(c3nccs3)CC2)on1 (stereo not given) | -3.21%
46 | Cc1nc(CN2CCOC(CN(C)c3cccnn3)C2)cs1 (stereo not given) | -12.9%
47 | CCn1cnnc1C1CCN(C(=O)COCCc2ccccc2)CC1 | -3.71%
48 | Cc1ccc(-c2nc(CN3CCn4c(nnc4C4CC4)C3)cs2)o1 | 14.8%
49 | Cc1cc(C(=O)NCCn2nc3ccccn3c2=O)[nH]n1 | -13.9%
50 | CC1CN(CC(=O)NC2CCCC2)CCN1c1ccc2nncn2n1 (stereo not given) | -20.8%
51 | CCc1nc(CN2CCCN(C(=O)COCC3CC3)CC2)cs1 | -12.1%
52 | O=C(O)c1csc(S(=O)(=O)Nc2cccc(OC(F)F)c2)c1 | -12.7%
53 | c1cc(-c2nc(CN3CCn4c(nnc4C4CC4)C3)cs2)cs1 | -25.2%
54 | CC(C)(C)c1cn2nc(N3CCC[C@@H]3CO)sc2n1 | -17.4%
55 | CCc1nc(CN2CCN(C(=O)Cc3c(C)noc3C)CC2)cs1 | -10.4%
56 | CC(c1nc(C2CC2)no1)N1CCN(Cc2cccc(C#N)c2)CC1 (stereo not given) | -2.01%
57 | c1cnn(CCNCc2csc(-c3ccsc3)n2)c1 | 10.6%
58 | Cc1cc(NC(=O)C(C)N2CCCN(c3nccs3)CC2)on1 (stereo not given) | -15.9%
59 | Cc1nn(C)c(N(C)C)c1CNCCOc1ccc2c(c1)OCO2 | -4.86%
60 | Cc1ccsc1CNC1CCCc2c1cnn2C (stereo not given) | -2.66%
